The record followed here is patent US20220401404A1, “Co-Administration Therapy to Prevent Neurodegeneration and Enhance Neuroprotection” (THE REGENTS OF THE UNIVERSITY OF CALIFORNIA, priority 2019, published 2022).

“And” between values parts separate entries of the source, which are not always exact repeats. Identical values can stand only once. Like-named read-outs stand apart in the source and are kept apart here.

One data set has as its system BV2 cells. Briefly: LPS-induced IL-1β and PGC-1α gene expression in BV2 cells (qRT-PCR). The data set is classed as cell-based. Particulars: for reduction of LPS-induced IL-1β expression: then 0.1 ng/ml LPS 1 hour. The source says: FIG. 4. […] Then total RNA was isolated for IL-1β gene qRT-PCR analysis.
FIGS. 7A and 7B. […] Cell lysates were collected, and RNA was isolated for IL-1β (FIG. 7A) and PGC-1α (FIG. 7B) gene expression by RT-PCR.
Total BV2 cell RNA was extracted for IL-1β gene expression via qRT-PCR analysis.
Cell lysates were collected for determination of IL-1β and PGC-1α gene expression via qRT-PCR.

Data set [1] has as its system primary astrocytes derived from PGC-1α WT (PGC-1α+/+) mice. As to the kind of experiment: LPS-induced inflammation in primary astrocytes from PGC-1α WT mice (RT-PCR gene expression). Type of data set: cell-based, mouse. Particulars: fenofibrate 20 μM overnight, then LPS 1 hour. As for the experimental part: (§1) Total RNA was isolated and IL-1β (A, D), TNF-α (B, E) and PGC-1α (C, F) gene expression were determined by RT-PCR.
(§2) Primary astrocytes from postnatal heterozygous mice were isolated and cultured and wild type mice were obtained by breeding these heterozygous knockout mice. […] Total RNA was isolated, and gene expression of pro-inflammatory cytokines, IL-1β and TNF-α, was determined by RT-PCR.

The subject of data set [2] is primary astrocytes derived from PGC-1α heterozygous KO (PGC-1α+/−) mice. As to the kind of experiment: LPS-induced inflammation in primary astrocytes from PGC-1α heterozygous KO mice (RT-PCR gene expression). Type of data set: cell-based, mouse. On the procedure:
as §1, §2

Data set [3] is described as follows: Hydrolysis of fenofibrate to fenofibric acid by pooled human liver microsomes (Km, Vmax). To be noted: pH 7.4. On the procedure:
FIGS. 8A and 8B. […] Reaction was stopped, supernatant collected and fenofibric acid level was determined by LC-MS/MS. […] The samples were analyzed in duplicates and represented as mean values.
The reactions were stopped by the addition of a stop solution containing an internal standard.

In data set [4] the target is pooled human liver microsomes (HLM). Briefly: Inhibition of fenofibrate hydrolysis in pooled human liver microsomes (Ki). The data set is classed as in vitro ADME. To be noted: matrix HLM, substrate fenofibrate. On the procedure: FIGS. 6A-6D. […] The reaction was stopped, supernatant collected and fenofibric acid level was determined by LC-MS/MS. Ki values were calculated, and the type of inhibition was determined by fitting data to enzyme inhibition models: competitive (FIG. 6A), non-competitive (FIG. 6B), uncompetitive (FIG. 6C) and mixed (FIG. 6D) models. The samples were analyzed in duplicates and represented as mean values.
(§3) Incubation mixtures containing 100 mM Tris-Cl buffer (pH 7.4), recombinant hCES1b (0.05 mg/mL) or pooled human liver microsomes (1 mg/mL) and 8 concentrations of kaempferol or a positive control inhibitor (bis(4-nitrophenyl)-phosphate, BNP) were pre-incubated for 2 minutes at 37° C. […] The reactions were stopped by the addition of a stop solution containing an internal standard. Samples were centrifuged to precipitate protein and the supernatant was collected for LC-MS/MS analysis. The fenofibric acid was quantified using standard curves. The Ki values were calculated, and the type of inhibition was determined by fitting data to specific enzyme inhibition models (Table 2).

For another data set, the target named is T1, recombinant hCES1b (Homo sapiens, UniProt P23141).
T1 sequence (P23141 18-567): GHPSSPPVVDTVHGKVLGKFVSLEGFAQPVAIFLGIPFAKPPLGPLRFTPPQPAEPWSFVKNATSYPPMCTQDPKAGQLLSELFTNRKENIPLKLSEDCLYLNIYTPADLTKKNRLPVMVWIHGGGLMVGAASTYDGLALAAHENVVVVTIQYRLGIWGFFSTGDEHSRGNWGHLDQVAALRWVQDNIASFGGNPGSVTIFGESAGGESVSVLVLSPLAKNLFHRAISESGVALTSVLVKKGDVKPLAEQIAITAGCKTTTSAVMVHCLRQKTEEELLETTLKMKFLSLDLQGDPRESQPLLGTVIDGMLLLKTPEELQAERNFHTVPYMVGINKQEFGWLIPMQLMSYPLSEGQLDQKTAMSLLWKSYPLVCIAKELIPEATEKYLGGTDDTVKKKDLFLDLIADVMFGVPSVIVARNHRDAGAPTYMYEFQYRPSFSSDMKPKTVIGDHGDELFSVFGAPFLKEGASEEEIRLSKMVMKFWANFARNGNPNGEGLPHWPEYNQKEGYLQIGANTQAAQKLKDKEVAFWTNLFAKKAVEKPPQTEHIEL
As to the kind of experiment: Inhibition of hCES1b-mediated fenofibrate hydrolysis (Ki). The data set is classed as biochemical. Particulars: matrix hCES1b, substrate fenofibrate. On the procedure: FIGS. 5A-5D. […] Reaction was stopped, supernatant collected and fenofibric acid level was determined by LC-MS/MS. Ki values were calculated, and the type of inhibition was determined by fitting data to enzyme inhibition models: competitive (FIG. 5A), non-competitive (FIG. 5B), uncompetitive (FIG. 5C) and mixed (FIG. 5D) models. The samples were analyzed in duplicates and represented as mean values.
as §3

Substrate in data set [5]: CC(C)OC(=O)C(C)(C)Oc1ccc(C(=O)c2ccc(Cl)cc2)cc1
As to the kind of experiment: cells, lysate or membranes named. The data set is classed as biochemical, human. To be noted: other: matrix hCES1b 0.05 mg/mL, product fenofibric acid, pH 7.4, 37° C.

Where [6] appears, read: read-out: Ki, Competitive inhibition model.
Where [7] appears, read: read-out: Ki, Mixed inhibition model.
[8] abbreviates: read-out: Ki, Non-Competitive inhibition model.
Setting [9] is: read-out: Ki, Uncompetitive inhibition model.

With `CC(C)OC(=O)C(C)(C)Oc1ccc(C(=O)c2ccc(Cl)cc2)cc1` [Fenofibrate], the “reduction of LPS-induced IL-1β expression” value in the data set on BV2 cells (20 μM, 18 hours) was 80% and 70%; in data set [1], 60%; in data set [2] (fenofibrate overnight (5, 10, 20 μM tested; concentration not stated), then LPS 1 hour), 55%. Further, the “increase of PGC-1α expression” value in the data set with BV2 cells (20 μM, 18 hours, then LPS 1 hour) worked out at 2 fold. Besides, in data set [2] (fenofibrate 10 and 20 μM), the “enhancement of PGC-1α expression” value turned out to be 1.5 fold. Moreover, the Km at 10 min in data set [3] worked out at 5.4 µM.
On to `O=[N+]([O-])c1ccc(OP(=O)(O)Oc2ccc([N+](=O)[O-])cc2)cc1` [BNP, bis(4-nitrophenyl)-phosphate], for which the Ki in data set [4] (setting [6]) stood at 1.67 µM; in data set [4] (setting [7]), 1.66 µM; in data set [4] (setting [8]), 5.17 µM; in data set [4] (setting [9]), 3.02 µM; on recombinant hCES1b (setting [6]), 0.044 µM; on recombinant hCES1b (setting [7]), 0.044 µM. The figures for the Ki on recombinant hCES1b (setting [8]) and on recombinant hCES1b (setting [9]) were 0.17 µM and 0.096 µM, respectively.
Consider `O=c1c(O)c(-c2ccc(O)cc2)oc2cc(O)cc(O)c12` [Kaempferol, 3,5,7-trihydroxy-2-(4-hydroxyphenyl)-4H-1-benzopyran-4-one], for which the inhibition constant (Ki) in data set [4] (setting [6]) was found to be 110 µM; in data set [4] (setting [8]), 235 µM; in data set [4] (setting [9]), 131 µM; at recombinant hCES1b (setting [6]), 36.2 µM; on recombinant hCES1b (setting [7]), 101 µM; on recombinant hCES1b (setting [8]), 101 µM. For the same molecule, the Ki at recombinant hCES1b (setting [9]) came to 64.7 µM. Also, the “reduction of LPS-induced IL-1β expression” value in the data set on BV2 cells (10 μM, 18 hours) turned out to be 60%; in the data set on BV2 cells (20 μM, 18 hours) it was 85%. Further, the “effect on PGC-1α expression” value with BV2 cells (kaempferol alone 10, 20 μM) is “did not enhance PGC-1α expression”.

B1: recombinant hCES1b (Homo sapiens) (protein)
chain: GHPSSPPVVDTVHGKVLGKFVSLEGFAQPVAIFLGIPFAKPPLGPLRFTPPQPAEPWSFVKNATSYPPMCTQDPKAGQLLSELFTNRKENIPLKLSEDCLYLNIYTPADLTKKNRLPVMVWIHGGGLMVGAASTYDGLALAAHENVVVVTIQYRLGIWGFFSTGDEHSRGNWGHLDQVAALRWVQDNIASFGGNPGSVTIFGESAGGESVSVLVLSPLAKNLFHRAISESGVALTSVLVKKGDVKPLAEQIAITAGCKTTTSAVMVHCLRQKTEEELLETTLKMKFLSLDLQGDPRESQPLLGTVIDGMLLLKTPEELQAERNFHTVPYMVGINKQEFGWLIPMQLMSYPLSEGQLDQKTAMSLLWKSYPLVCIAKELIPEATEKYLGGTDDTVKKKDLFLDLIADVMFGVPSVIVARNHRDAGAPTYMYEFQYRPSFSSDMKPKTVIGDHGDELFSVFGAPFLKEGASEEEIRLSKMVMKFWANFARNGNPNGEGLPHWPEYNQKEGYLQIGANTQAAQKLKDKEVAFWTNLFAKKAVEKPPQTEHIEL
Turning to B1, in data set [5], the Km turned out to be 6.04 µM and the maximal velocity (Vmax) worked out at 0.0283 µmol/min/mg.
